pIC50: −log10 of the molar value.
What follows are molecules tested on A549 human lung cancer cells (assay: Cell proliferation-inhibiting activity, A549 (CellTiter-Glo, ATP in viable cells)). Details: A549, 96 h, Table 3, 4 days culture.
Type: cell-based
Description: (§1) The cell proliferation-inhibiting activity of the compounds listed in Table 3 below was evaluated by measuring the amount of ATP in viable cells as described below.
(§2) The test compound was serially diluted with DMSO and then diluted 25-fold with Ca^2+, Mg^2+-free phosphate-buffered saline, and was then dispensed into a 96-well plate at 5 μL per well. A cell suspension containing the below indicated concentration of A549, Calu-6 or NCI-H2122 human lung cancer cells (all obtained from ATCC) was prepared using the below indicated medium with the addition of 10% fetal bovine serum (Sigma). The cell suspension was dispensed into the test compound-added plate at 95 μL per well and cultured in a 5% carbon dioxide gas incubator at 37° C. After 4 days, 80 μL of CellTiter-Glo (registered trademark) (Promega Corp.) was added to each well and the bioluminescence was measured with a fluorescent plate reader.
A549: Dulbecco's Modified Eagle's Medium (Sigma); 2000 cells/95 μL
`COCCNS(=O)(=O)Nc1nccc(Cc2cc(C(=O)NC3CC3)c(Nc3ccc(I)cc3F)n(C)c2=O)c1F` [J-7, N-Cyclopropyl-2-(2-fluoro-4-iodoanilino)-5-[[3-fluoro-2-(2-methoxyethylsulfamoylamino)pyridin-4-yl]methyl]-1-methyl-6-oxopyridine-3-carboxamide] gave a pIC50 of 7.00.
In the case of `CCS(=O)(=O)Nc1cc(Cc2cc(C(N)=O)c(Nc3ccc(I)cc3F)n(C)c2=O)ccn1` [J-12, 5-[[2-(Ethylsulfonylamino)pyridin-4-yl]methyl]-2-(2-fluoro-4-iodoanilino)-1-methyl-6-oxopyridine-3-carboxamide], the pIC50 was 6.65.
`COCCNS(=O)(=O)Nc1nccc(Cc2cc(C(N)=O)c(Nc3ccc(I)cc3F)n(C)c2=O)c1F` [J-2, 2-(2-Fluoro-4-iodoanilino)-5-[[3-fluoro-2-(2-methoxyethylsulfamoylamino)pyridin-4-yl]methyl]-1-methyl-6-oxopyridine-3-carboxamide] showed a pIC50 of 6.45.
With `COCCNS(=O)(=O)Nc1nccc(Cc2cc(C(N)=O)c(Nc3ccc(I)cc3F)cc2F)c1F` [1-4, 4-Fluoro-2-(2-fluoro-4-iodoanilino)-5-[[3-fluoro-2-(2-methoxyethylsulfamoylamino)pyridin-4-yl]methyl]benzamide] the pIC50 was 6.35.
`CCCNS(=O)(=O)Nc1nccc(Cn2cc(C(N)=O)c(Nc3ccc(I)cc3F)c(F)c2=O)c1F` [N-2, 5-fluoro-4-(2-fluoro-4-iodoanilino)-1-[[3-fluoro-2-(propylsulfamoylamino)pyridin-4-yl]methyl]-6-oxopyridine-3-carboxamide] was tested, and the pIC50 was 6.71.
`Cn1c(Nc2ccc(I)cc2F)c(C(N)=O)cc(Cc2ccnc(NS(=O)(=O)NC3CC3)c2F)c1=O` [J-13, 5-[[2-(Cyclopropylsulfamoylamino)-3-fluoropyridin-4-yl]methyl]-2-(2-fluoro-4-iodoanilino)-1-methyl-6-oxopyridine-3-carboxamide] showed a pIC50 of 6.71.

These molecules were tested on Calu-6 human lung cancer cells (assay: Cell proliferation-inhibiting activity, Calu-6 (CellTiter-Glo, ATP in viable cells)). Details: Calu-6, 96 h, Table 3, 4 days culture.
Type: cell-based
Description: as §1, §2
Calu-6: Eagle's Minimum Essential Medium (Sigma); 4000 cells/95 μL
Molecule `COCCS(=O)(=O)Nc1cccc(Cc2cc(C(N)=O)c(Nc3ccc(I)cc3F)c(F)c2F)c1` [F-3, 3,4-Difluoro-2-(2-fluoro-4-iodoanilino)-5-[[3-(2-methoxyethylsulfonylamino)phenyl]methyl]benzamide] has a pIC50 of 6.93.
Work on `CCS(=O)(=O)Nc1nccc(Cc2cc(C(=O)NC3CC3)c(Nc3ccc(C4CC4)cc3F)c(F)c2F)c1F` [G-7, N-Cyclopropyl-2-(4-cyclopropyl-2-fluoroanilino)-5-[[2-(ethylsulfonylamino)-3-fluoropyridin-4-yl]methyl]-3,4-difluorobenzamide] yielded a pIC50 of 6.35.
Molecule `NC(=O)c1cc(Cc2cccc(NS(=O)(=O)C3CCC3)c2F)c(F)c(F)c1Nc1ccc(I)cc1F` [E-20, 5-[[3-(Cyclobulsulfonylamino)-2-fluorophenyl]methyl]-3,4-difluoro-2-(2-fluoro-4-iodoanilino)benzamide] has a pIC50 of 6.99.
`CNS(=O)(=O)Nc1nccc(Cc2cc(C(=O)NOC)c(Nc3ccc(Cl)cc3F)c(F)c2F)c1F` [G-4, 2-(4-Chloro-2-fluoroanilino)-3,4-difluoro-5-[[3-fluoro-2-(methylsulfamoylamino)pyridin-4-yl]methyl]-N-methoxybenzamide] showed a pIC50 of 6.59.
`CCS(=O)(=O)Nc1cccc(Cc2cc(C(=O)NC3CC3)c(Nc3ccc(I)cc3F)c(F)c2F)c1F` [D-8, N-Cyclopropyl-5-[[3-(ethylsulfonylamino)-2-fluorophenyl]methyl]-3,4-difluoro-2-(2-fluoro-4-iodoanilino)benzamide] was tested, and the pIC50 was 6.95.
In the case of `CC1(NS(=O)(=O)Nc2nccc(Cc3cc(C(=O)NC4CC4)c(Nc4ccc(I)cc4F)c(F)c3F)c2F)CCC1` [A-47, N-Cyclopropyl-3,4-difluoro-2-(2-fluoro-4-iodoanilino)-5-[[3-fluoro-2-[(1-methylcyclobutyl)sulfamoylamino]pyridin-4-yl]methyl]benzamide], the pIC50 was 6.98.
Molecule `CCS(=O)(=O)Nc1cc(Cc2cc(C(N)=O)c(Nc3ccc(I)cc3F)n(C)c2=O)ccn1` [J-12, 5-[[2-(Ethylsulfonylamino)pyridin-4-yl]methyl]-2-(2-fluoro-4-iodoanilino)-1-methyl-6-oxopyridine-3-carboxamide] has a pIC50 of 6.33.
For `CCS(=O)(=O)Nc1cccc(Cc2cc(C(=O)NC3CC3)c(Nc3ccc(I)cc3F)n(C)c2=O)c1F` [K-8, N-Cyclopropyl-5-[[3-(ethylsulfonylamino)-2-fluorophenyl]methyl]-2-(2-fluoro-4-iodoanilino)-1-methyl-6-oxopyridine-3-carboxamide], the pIC50 was 6.91.
`Cn1c(Nc2ccc(I)cc2F)c(C(N)=O)cc(Cc2ccnc(NS(=O)(=O)NC3(C)CCC3)c2F)c1=O` [J-15, 2-(2-Fluoro-4-iodoanilino)-5-[[3-fluoro-2-[(1-methylcyclobutyl)sulfamoylamino]pyridin-4-yl]methyl]-1-methyl-6-oxopyridine-3-carboxamide] was tested, and the pIC50 was 6.55.
`Cc1c(Nc2ccc(I)cc2F)c(C(N)=O)cn(Cc2ccnc(NS(=O)(=O)NC3(C)CCC3)c2F)c1=O` [P-3, 4-(2-Fluoro-4-iodoanilino)-1-[[3-fluoro-2-[(1-methylcyclobutyl)sulfamoylamino]pyridin-4-yl]methyl]-5-methyl-6-oxopyridine-3-carboxamide] showed a pIC50 of 6.65.
Work on `CCCS(=O)(=O)Nc1cccc(Cc2cc(C(N)=O)c(Nc3ccc(I)cc3F)c(F)c2F)c1F` [E-18, 3,4-Difluoro-2-(2-fluoro-4-iodoanilino)-5-[[2-fluoro-3-(propylsulfonylamino)phenyl]methyl]benzamide] yielded a pIC50 of 6.91.
`CCS(=O)(=O)Nc1nccc(Cn2cc(C(=O)NOC)c(Nc3ccc(I)cc3F)c(C)c2=O)c1F` [P-5, 1-[[2-(ethylsulfonylamino)-3-fluoropyridin-4-yl]methyl]-4-(2-fluoro-4-iodoanilino)-N-methoxy-5-methyl-6-oxopyridine-3-carboxamide] gave a pIC50 of 6.35.
Molecule `Cn1c(Nc2ccc(I)cc2F)c(C(N)=O)cc(Cc2ccnc(NS(=O)(=O)NC3CC3)c2F)c1=O` [J-13, 5-[[2-(Cyclopropylsulfamoylamino)-3-fluoropyridin-4-yl]methyl]-2-(2-fluoro-4-iodoanilino)-1-methyl-6-oxopyridine-3-carboxamide] has a pIC50 of 6.55.
Molecule `CCCS(=O)(=O)Nc1nccc(Cc2cc(C(N)=O)c(Nc3ccc(I)cc3F)c(F)c2F)c1F` [B-8, 3,4-Difluoro-2-(2-fluoro-4-iodoanilino)-5-[[3-fluoro-2-(propylsulfonylamino)pyridin-4-yl]methyl]benzamide] has a pIC50 of 6.63.
Molecule `NC(=O)c1cc(Cc2cccc(NS(=O)(=O)C3COC3)c2F)c(F)c(F)c1Nc1ccc(I)cc1F` [E-21, 3,4-Difluoro-2-(2-fluoro-4-iodoanilino)-5-[[2-fluoro-3-(oxetan-3-ylsulfonylamino)phenyl]methyl]benzamide] has a pIC50 of 6.96.
Work on `CCS(=O)(=O)Nc1nccc(Cc2cc(C(N)=O)c(Nc3ccc(I)cc3F)c(F)c2F)c1F` [A-38, 5-[[2-(Ethylsulfonylamino)-3-fluoropyridin-4-yl]methyl]-3,4-difluoro-2-(2-fluoro-4-iodoanilino)benzamide] yielded a pIC50 of 6.91.
`CCNS(=O)(=O)Nc1nccc(Cc2cc(C(N)=O)c(Nc3ccc(I)cc3F)cc2F)c1F` [1-2, 5-[[2-(Ethylsulfamoylamino)-3-fluoropyridin-4-yl]methyl]-4-fluoro-2-(2-fluoro-4-iodoanilino)benzamide] showed a pIC50 of 6.99.
In the case of `CC1(NS(=O)(=O)Nc2cccc(Cc3cc(C(=O)NC4CC4)c(Nc4ccc(I)cc4F)c(F)c3F)c2F)CCC1` [D-10, N-Cyclopropyl-3,4-difluoro-2-(2-fluoro-4-iodoanilino)-5-[[2-fluoro-3-[(1-methylcyclobutyl)sulfamoylamino]phenyl]methyl]benzamide], the pIC50 was 6.51.
`NC(=O)c1cc(Cc2cccc(NS(=O)(=O)CCCF)c2F)c(F)c(F)c1Nc1ccc(I)cc1F` [E-15, 3,4-Difluoro-5-[[2-fluoro-3-(3-fluoropropylsulfonylamino)phenyl]methyl]-2-(2-fluoro-4-iodoanilino)benzamide] showed a pIC50 of 6.82.
